# Reference: patent EP4083217A1, “IN VIVO […] THERAPY FOR THE TREATMENT OF PRIMARY HYP[…] 1” (Centro de Investigaciones Energéticas, Medioambientales y …, priority 2021, dated 2022)
# System: HepG2 cells
# Experiment: Transduction enhancer Cyclosporin H in vitro testing (eGFP positive cells by flow cytometry)
# Assay type: cell-based
# Protocol: Due to the important relevance of the target tissue origin, HepG2 cells, a hepatic cell line, were used.
# Three days after transduction, the percentage of eGFP positive cells was analysed by Flow Cytometry. All conditions were performed as triple experimental replicates.
smiles,measurement,setting,value
"C/C=C/C[C@@H](C)[C@@H](O)[C@H]1C(=O)N[C@@H](CC)C(=O)N(C)CC(=O)N(C)[C@@H](CC(C)C)C(=O)N[C@@H](C(C)C)C(=O)N(C)[C@@H](CC(C)C)C(=O)N[C@@H](C)C(=O)N[C@H](C)C(=O)N(C)[C@@H](CC(C)C)C(=O)N(C)[C@@H](CC(C)C)C(=O)N(C)[C@H](C(C)C)C(=O)N1C [CsH, Cyclosporin H]",transduction percentage (eGFP positive cells),"HepG2, LV.ET.eGFP.142-3pT MOI 0.3, 4 µM CsH during transduction",37.67%
same,percentage of transduced cells,"HepG2, LV.ET.eGFP.142-3pT MOI 0.3, 16 µM CsH 16 hours pre-treatment and during transduction",31.03%
same,transduction percentage (eGFP positive cells),"HepG2, LV.ET.eGFP.142-3pT MOI 0.3, 16 µM CsH during transduction",51.5%
